Data taken from US5654451A, “Amino acids and peptides having modified C-terminals and modified N-terminals” (Magainin Pharmaceuticals Inc., priority 1995, dated 1997).
≈ marks a conversion by molar mass, not a printed value.

Experiments:
Test in all cases: Antimicrobial assay (MIC, microtiter broth dilution)
Type in all cases: cell-based
C. albicans = details: for MIC C. albicans: Table I; for MIC C. albicans 14053: strain 14053
Description: (§1) The procedure for the antimicrobial assay is based upon the guidelines of the National Committee for Clinical Laboratory Standards, Document M7-T2, Volume 8, No. 8, 1988.
(§2) 1-5×10^5 CFUs/ml of either S. aureus ATCC 25923, E. coli ATCC 25922, P. aeruginosa ATCC 27853, or C. albicans were added to the wells in full strength Mueller Hinton broth (BBL 11443) from a mid-log culture. The inoculum is standardized spectrophotometrically at 600 nm and is verified by colony counts. The plates are incubated for 16-20 hours at 37° C., and the minimal inhibitory concentrations (MIC) for the compounds are determined. Minimal inhibitory concentration is defined as the lowest concentration of amino acid or peptide which produces a clear well in the microtiter plate.

E. coli = details: for MIC E. coli: Table I, E. coli ATCC 25922; for MIC E. coli 25922: strain 25922 (Tables II-V)
Description: as §1, §2

P. aeruginosa = details: for MIC P aeruginosa: Table I, P. aeruginosa ATCC 27853; for MIC P. aeruginosa 27853: strain 27853 (Tables II-V)
Description: as §1, §2

S. aureus = details: for MIC S. aureus: Table I, S. aureus ATCC 25923; for MIC S. aureus 29213: strain 29213 (Tables II-V)
Description: as §1, §2

C. tropicalis = details: for MIC C. tropicalis 13803: strain 13803; for MIC C. tropicalis 28707: strain 28707
C. parapsilosis = details: for MIC C. parapsilosis 10232: strain 10232; for MIC C. parapsilosis 22109: strain 22109
C. kefyr = details: strain 28838
T. mentagrophytes = details: strain 18748
T. rubrum = details: strain 36262
M. canis = details: strain 11621
E. floccosum = details: strain 52062
E. faecium = details: strain 26143
E. faecalis = details: for MIC E. faecalis 23296: strain 23296; for MIC E. faecalis 29212: strain 29212
C. difficile = details: for MIC C. difficile P324: strain P324; for MIC C. difficile TTU614: strain TTU614
B. fragilis = details: strain 25285
L. fermentum = details: strain 23271
S. epidermidis = test system: S. epidermidis
P. mirabilis = details: for MIC P. mirabilis 23147: strain 23147; for MIC P. mirabilis 24231: strain 24231
S. marcescens = details: for MIC S. marcescens 18963: strain 18963; for MIC S. marcescens 23420: strain 23420
P. gingivalis = test system: P. gingivalis

Row | SMILES | MIC C. albicans (C. albicans) | MIC C. albicans 14053 (C. albicans) | MIC E. coli (E. coli) | MIC E. coli 25922 (E. coli) | MIC P aeruginosa (P. aeruginosa) | MIC P. aeruginosa 27853 (P. aeruginosa) | MIC S. aureus (S. aureus) | MIC S. aureus 29213 (S. aureus) | MIC C. tropicalis 13803 (C. tropicalis) | MIC C. tropicalis 28707 (C. tropicalis) | MIC C. parapsilosis 10232 (C. parapsilosis) | MIC C. parapsilosis 22109 (C. parapsilosis) | MIC C. kefyr 28838 (C. kefyr) | MIC T. mentagrophytes 18748 (T. mentagrophytes) | MIC T. rubrum 36262 (T. rubrum) | MIC M. canis 11621 (M. canis) | MIC E. floccosum 52062 (E. floccosum) | MIC E. faecium 26143 (E. faecium) | MIC E. faecalis 23296 (E. faecalis) | MIC E. faecalis 29212 (E. faecalis) | further results
1 | N=C(N)NC(Cc1ccc(F)cc1)C(=O)NCCCCCCCCCCCCNC(=O)C(Cc1ccc(F)cc1)NC(=N)N (stereo not drawn) [Compound 11, 1,12-[bis-N-α-amidino-p-fluoro-phenylalanyl]diaminododecane] | 16 µg/mL (≈ 26 µM) | 2,64 μg/ml | 4 µg/mL (≈ 6.51 µM) | 2,16 μg/ml | 8 µg/mL (≈ 13 µM) | 8,16 μg/ml | 2 µg/mL (≈ 3.25 µM) |  | 2 µg/mL (≈ 3.25 µM) | 0.5 µg/mL (≈ 0.813 µM) | 1,2 μg/ml | 1 µg/mL (≈ 1.63 µM) | 1 µg/mL (≈ 1.63 µM) | 4 µg/mL (≈ 6.51 µM) | 8 µg/mL (≈ 13 µM) | 4 µg/mL (≈ 6.51 µM) | 4 µg/mL (≈ 6.51 µM) | 1 µg/mL (≈ 1.63 µM) | 1 µg/mL (≈ 1.63 µM) | 1 µg/mL (≈ 1.63 µM) | MIC P. aeruginosa 1133 (P. aeruginosa; strain 1133): 32 µg/mL (≈ 52.1 µM); MIC P. aeruginosa El Salvador (P. aeruginosa; strain El Salvador): 128 µg/mL (≈ 208 µM); MIC S. aureus 1093 (S. aureus; strain 1093): 2 µg/mL (≈ 3.25 µM); MIC S. aureus 1096 (S. aureus; strain 1096): 2 µg/mL (≈ 3.25 µM); MIC C. difficile P324 (C. difficile): 2 µg/mL (≈ 3.25 µM); MIC C. difficile TTU614 (C. difficile): 4 µg/mL (≈ 6.51 µM); MIC B. fragilis 25285 (B. fragilis): 2 µg/mL (≈ 3.25 µM); MIC L. fermentum 23271 (L. fermentum): 1 µg/mL (≈ 1.63 µM); MIC S. epidermidis 1050 (S. epidermidis; strain 1050): 1 µg/mL (≈ 1.63 µM); MIC S. epidermidis 1090 (S. epidermidis; strain 1090): 2 µg/mL (≈ 3.25 µM); MIC P. mirabilis 23147 (P. mirabilis): > 256 µg/mL; MIC P. mirabilis 24231 (P. mirabilis): 7256 µg/mL (≈ 11800 µM); MIC S. marcescens 18963 (S. marcescens): 16 µg/mL (≈ 26 µM); MIC S. marcescens 23420 (S. marcescens): > 256 µg/mL
2 | N=C(N)NC(Cc1ccc(O)cc1)C(=O)NCCCCCCCCCCCCNC(=O)C(Cc1ccc(O)cc1)NC(=N)N (stereo not drawn) [Compound 4, 1,12-[bis-N-α-amidino-tyrosyl)diaminododecane] | > 256 µg/mL | 128,256 μg/ml | 128 µg/mL (≈ 210 µM) | 64,256 μg/ml | 128 µg/mL (≈ 210 µM) | 128 µg/mL (≈ 210 µM) | 2 µg/mL (≈ 3.27 µM) | 2,4 μg/ml |  |  |  |  |  |  |  |  |  |  |  |  | MIC C. difficile P324 (C. difficile): 4 µg/mL (≈ 6.55 µM); MIC C. difficile TTU614 (C. difficile): 32 µg/mL (≈ 52.4 µM); MIC B. fragilis 25285 (B. fragilis): 256 µg/mL (≈ 419 µM); MIC L. fermentum 23271 (L. fermentum): 4,8 μg/ml
3 | NC(N)=NC(Cc1ccccc1)C(=O)NCCCCCCCCCCCCNC(=O)C(Cc1ccccc1)N=C(N)N (stereo not drawn) [Compound 3, 1,12-[bis-N-α-amidino-phenylalanyl]diaminododecane] | 4 µg/mL (≈ 6.91 µM) | 4 µg/mL (≈ 6.91 µM) | 4 µg/mL (≈ 6.91 µM) | 4 µg/mL (≈ 6.91 µM) | 8 µg/mL (≈ 13.8 µM) | 4,32 μg/ml | 1 µg/mL (≈ 1.73 µM) | 1 µg/mL (≈ 1.73 µM) | 2 µg/mL (≈ 3.46 µM) | 0.5 µg/mL (≈ 0.864 µM) | 2 µg/mL (≈ 3.46 µM) | 2 µg/mL (≈ 3.46 µM) | 2 µg/mL (≈ 3.46 µM) | 16 µg/mL (≈ 27.6 µM) | 16 µg/mL (≈ 27.6 µM) | 32 µg/mL (≈ 55.3 µM) | 16 µg/mL (≈ 27.6 µM) | 2 µg/mL (≈ 3.46 µM) | 1,2 μg/ml | 1,2 μg/ml | MIC E. faecalis 19052 (E. faecalis; strain 19052): 1,2 μg/ml; MIC E. faecalis 19290 (E. faecalis; strain 19290): 1,2 μg/ml; MIC P. gingivalis 9-14K-1 (P. gingivalis; strain 9-14K-1): 4 µg/mL (≈ 6.91 µM); MIC P. gingivalis 381 (P. gingivalis; strain 381): 4 µg/mL (≈ 6.91 µM); MIC P. gingivalis A7A1-28 (P. gingivalis; strain A7A1-28): 4 µg/mL (≈ 6.91 µM); MIC P. gingivalis FAY-19M-1 (P. gingivalis; strain FAY-19M-1): 4 µg/mL (≈ 6.91 µM); MIC P. gingivalis W50 (P. gingivalis; strain W50): 4 µg/mL (≈ 6.91 µM); MIC P. mirabilis 23147 (P. mirabilis): > 256 µg/mL; MIC P. mirabilis 24231 (P. mirabilis): > 256 µg/mL; MIC S. marcescens 18963 (S. marcescens): 64 µg/mL (≈ 111 µM); MIC S. marcescens 23420 (S. marcescens): > 256 µg/mL

Further lines, with some results ahead:

Row | MIC C. albicans (C. albicans) | MIC C. albicans 14053 (C. albicans) | MIC E. coli (E. coli) | MIC E. coli 25922 (E. coli) | MIC P aeruginosa (P. aeruginosa) | MIC P. aeruginosa 27853 (P. aeruginosa) | MIC S. aureus (S. aureus) | MIC S. aureus 29213 (S. aureus) | MIC C. tropicalis 13803 (C. tropicalis) | MIC C. tropicalis 28707 (C. tropicalis) | MIC C. parapsilosis 10232 (C. parapsilosis) | MIC C. parapsilosis 22109 (C. parapsilosis) | MIC C. kefyr 28838 (C. kefyr) | MIC T. mentagrophytes 18748 (T. mentagrophytes) | MIC T. rubrum 36262 (T. rubrum) | MIC M. canis 11621 (M. canis) | MIC E. floccosum 52062 (E. floccosum) | SMILES | MIC E. faecium 26143 (E. faecium) | MIC E. faecalis 23296 (E. faecalis) | MIC E. faecalis 29212 (E. faecalis) | further results
4 | 32 µg/mL (≈ 112 µM) | 4,32 μg/ml | 32 µg/mL (≈ 112 µM) | 32 µg/mL (≈ 112 µM) | 128 µg/mL (≈ 450 µM) | 128 µg/mL (≈ 450 µM) | 8 µg/mL (≈ 28.1 µM) | 8 µg/mL (≈ 28.1 µM) | 0.5 µg/mL (≈ 1.76 µM) | ≤ 0.25 µg/mL | 0.5 µg/mL (≈ 1.76 µM) | 4 µg/mL (≈ 14.1 µM) | 4 µg/mL (≈ 14.1 µM) |  |  |  |  | N=C(N)NCCCCCCCCCCCCNC(=N)N [Compound 36, 1,12 [bisguanyl]diaminododecane] |  |  |  | 
5 |  | 32 µg/mL (≈ 60.3 µM) |  | 16 µg/mL (≈ 30.1 µM) |  | 256 µg/mL (≈ 482 µM) |  | 4 µg/mL (≈ 7.54 µM) |  |  |  |  |  | 4 µg/mL (≈ 7.54 µM) | 16 µg/mL (≈ 30.1 µM) | 32 µg/mL (≈ 60.3 µM) | 16 µg/mL (≈ 30.1 µM) | NC(Cc1ccc(F)cc1)C(=O)NCCCCCCCCCCCCNC(=O)C(N)Cc1ccc(F)cc1 (stereo not shown) [Compound 19] |  |  |  | 
